Data as given in patent publication US6589977B1, “Pyrrole derivatives and cell death inhibitors” (Sagami Chemical Research Center, priority 1999, dated 2003).

Experiments:
[1] = system: Porcine ovarian granulosa cells (POGC); assay: Inhibition of SNP-induced apoptosis of porcine ovarian granulosa cells; format: cell-based; settings: SNP 0.5 mM; cells observed after 18 hours
Text: (§1) Porcine ovaries were washed with PBS buffer, and Porcine ovarian granulosa cells (POGC) were collected by aspiration from follicles with a syringe. Cell fraction was recovered as a precipitate by centrifugation of the suspension. The operation of suspending the cell fraction into PBS buffer and subjecting the resulting suspension to centrifugation was repeated three times to wash the cells. The POGC obtained as a precipitate were suspended again into a culture medium (DMEM containing 10% fetal bovine serum) and cell clumps were disrupted by pipetting. The cell suspension was passed through a mesh to remove contaminating tissue fragments, and then pipetted in 24-well plates for cell culture. The cell suspension was cultured for 2 days in a CO2 incubator according to a conventional procedure (37° C., 5% CO2). Then, the medium was refreshed to remove floating cells and the cultivation was continued further 2 to 3 days until the cells reached subconfluency (0.7 to 2×10^5 cell/well). After the attaching cells were washed with serum-free medium, they were cultured in a serum-free DMEM (containing 5 μg/mL of transferrin, and 40 ng/mL of hydrocortisone, 4 mg/mL of bovine serum albumin (BSA), 100 nM androstendione) and it was possible to continue to culture cells with relatively immature differentiation. […] The cell death was also confirmed by MTT assay. Then, various concentrations of the test compounds were added to the present culture system and the cells were observed after 18 hours.

cerebellar granule cells [2] = assay: Inhibition of hydrogen peroxide-induced death of cerebellar granule cells; format: cell-based, rats; settings: compound 10 μM added prior to hydrogen peroxide (10 μM); after 12 hours
Experimental: (§2) According to a known method (A Dissection and Tissue Culture Manual of the Nervous System, p. 211, 1989, Alan R, Liss, Inc.), cerebellar granule cells were isolated from the cerebellum of 7 days old rats and cultured. Namely, after conducting isolation procedures described in the above literature, the resulting cells were resuspended in DMEM containing 10% fetal bovine serum, 25 mM KCl and 2 mM glutamine, and seeded in poly-lysine coated plates. After the cells were cultured in a CO2 incubator for 48 hours according to a conventional method, cytosine-1-β-D(+)-arabinofuranoside (Ara-C) (10 μM) was added thereto, and the cell was continued to culture. The following experiments were conducted with the cells of 7 to 14 days old from the start day of the cultivation, the cells having completed neurite extension sufficiently.

cerebellar granule cells [3] = assay: Inhibition of low potassium medium-induced death of cerebellar granule cells; format: cell-based, rats; settings: compound 10 μM; low potassium medium (5 mM KCl); after 18 hours
Experimental: as §2
It is known that neuronal cells undergo cell death when they are cultured in a medium of low potassium (Proc. Natl. Acad. Sci. U.S.A., volume 90, p 10989, 1993). […] When the test compound 1 (10 μM), the test compound 10 (10 μM), or the test compound 15 (10 μM)coexisted, 50%, 80%, and 85% of cells were respectively alive on an observation made similarly after 18 hours.

erythrocytes = assay: Inhibition of hydrogen peroxide-induced hemolysis of erythrocytes; format: cell-based, Human; settings: compound 10 μM added prior to hydrogen peroxide (300 μM); after 24 hours
Experimental: Human blood was collected and precipitated by a centrifugation (1000 rpm, 5 min) and the precipitate containing erythrocytes was washed three times with PBS and resuspended (about 5×10^8 cells/ml) with DMEM containing 10% fetal bovine serum. Cell suspensions were dispensed into a 48-well plate to become subconfluent (about 5×10^5 cells/0.5 ml/well). When hydrogen peroxide (300 μM) was added and cultivation continued for 24 hours, more than 95% of erythrocytes underwent hemolysis and become dark and ghost-like on an observation under a light microscopy.

Hela 3S cells = assay: Anti-cell death effect on Hela 3S cells cultured in Krebs Ringer Buffer; format: cell-based, human; settings: compound 10 μM
Experimental: Hela 3S cells (culture medium: DMEM containing 10% fetal bovine serum), a cell line derived from human cervical cancer, were seeded into multi 48 well plates and cultured in a CO2 incubator according to conventional procedures. Confirming the subconfluency of a cell culture, the medium was replaced with Krebs Ringer Buffer (120 mM NaCl, […], 1 mM KH2PO4, […], 20 mM HEPES, pH 7.4, 2.57 g/L glucose, 0.05 g/L Phenol Red) and washed three times with the same buffer and cultivation continued in the same buffer. […] When the test compound 1 (10 μM) or the test compound 15 (10 μM) was added in the present culture system and cultivation continued similarly, the proportion of normal cells increased 59% or 77% respectively, and the proportion of necrosis-like cells decreased (1% or 0%, respectively), indicating the anti-cell death effects.

undifferentiated POGC = assay: Inhibition of hydrogen peroxide-induced cell death of undifferentiated POGC; format: cell-based, Porcine; settings: compound 0.3 μM added prior to hydrogen peroxide (100 μM); observation after 18 hour
Text: as §1, with “Then, various concentrations of the test compounds were added to the present culture system and the cells were observed after 18 hours.” left out

SMILES | MEC (Minimum effective concentration for more than 95% of inhibition of cell death) [1] [µM] | also measured
Cn1cc(-c2c[nH]c3ccccc23)c(-c2cn(C(=O)OC(C)(C)C)c3ccccc23)c1 [Compound 2] | 0.3 | –
Cn1cc(-c2cn(C)c3ccccc23)c(-c2cn(C)c3ccccc23)c1 [Compound 9] | 0.3 | –
Cc1cccc2c(-c3cn(C)cc3-c3c[nH]c4c(C)cccc34)c[nH]c12 [Compound 10] | 0.03 | cells alive (cerebellar granule cells [2]): > 95%; cells alive (cerebellar granule cells [3]): 80%; inhibition of hemolysis (erythrocytes): almost complete inhibition of hemolysis
Cn1cc(-c2cn(CCCN)c3ccccc23)c(-c2cn(CCCN)c3ccccc23)c1 [Compound 5] | 0.1 | –
Cc1[nH]c2ccccc2c1-c1cn(C)cc1-c1c(C)[nH]c2ccccc12 [Compound 11] | 0.1 | –
Cn1cc(-c2c[nH]c3ccccc23)c(-c2cn(C)c3ccccc23)c1 [Compound 8] | 0.3 | –
Cn1cc(-c2c[nH]c3ccccc23)c(-c2c[nH]c3ccccc23)c1 [Compound 1] | 0.3 | cells alive (cerebellar granule cells [2]): more than 80%; cells alive (cerebellar granule cells [3]): 50%; proportion of necrosis-like cells (Hela 3S cells; after 5 hours (11% without compound)): 1%; proportion of normal cells (Hela 3S cells; after 5 hours (42% normal without compound)): 59%; inhibition of hemolysis (erythrocytes): almost complete inhibition of hemolysis
Cn1cc(-c2c[nH]c3ccc(F)cc23)c(-c2c[nH]c3ccc(F)cc23)c1 [Compound 12] | 1 | –
c1ccc(Cn2cc(-c3c[nH]c4ccccc34)c(-c3c[nH]c4ccccc34)c2)cc1 [Compound 18] | 0.3 | –
CN(C)CCCn1cc(-c2cn(C)cc2-c2cn(CCCN(C)C)c3ccccc23)c2ccccc21 [Compound 7] | 1 | –
c1ccc(-n2cc(-c3c[nH]c4ccccc34)c(-c3c[nH]c4ccccc34)c2)cc1 [Compound 17] | 0.3 | –
COc1ccc2c(c1)c(-c1cn(C)cc1-c1cn(C)c3ccc(OC)cc13)cn2C [Compound 14] | 1 | –
Cc1ccc2[nH]cc(-c3cn(C)cc3-c3cn(C)c4ccc(C)cc34)c2c1 [Compound 24, 3-(1,5-dimethyl-1H-indol-3-yl)-4-(5-methyl-1H-indol-3-yl)-1-methylpyrrole] | 0.1 | –
Cn1cc(-c2c[nH]c3ccccc23)c(-c2cn(CCCN)c3ccccc23)c1 [Compound 4] | 0.3 | –
Cn1cc(-c2cn(C(=O)OC(C)(C)C)c3ccccc23)c(-c2cn(C(=O)OC(C)(C)C)c3ccccc23)c1 [Compound 3] | 10 | –
Cc1ccc2c(c1)c(-c1cn(C)cc1-c1cn(CCCN)c3ccc(C)cc13)cn2C [Compound 16] | 0.1 | inhibition of cell death (undifferentiated POGC): complete inhibition of cell death; survival of the cells (undifferentiated POGC): more than 95%
Cc1ccc2c(c1)c(-c1cn(C)cc1-c1cn(C(=O)OC(C)(C)C)c3ccc(C)cc13)cn2C(=O)OC(C)(C)C [Compound 23] | 10 | –
COc1ccc2[nH]cc(-c3cn(C)cc3-c3c[nH]c4ccc(OC)cc34)c2c1 [Compound 13] | 0.3 | –
Cc1ccc2[nH]cc(-c3cn(C)cc3-c3cn(C(=O)OC(C)(C)C)c4ccc(C)cc34)c2c1 [Compound 22] | 0.3 | –
CN(C)CCCn1cc(-c2cn(C)cc2-c2c[nH]c3ccccc23)c2ccccc21 [Compound 6] | 0.3 | –
